In paper PMC8708390, “Fatty Acid Modification of the Anticancer Peptide LVTX-9 to Enhance Its Cytotoxicity against Malignant Melanoma Cells” (Toxins, 2021):
Where a SMILES comes first, the peptide text is derived from it. The star is where a group is joined. Arachidoyl = CCCCCCCCCCCCCCCCCCCC(=O)*; Stearoyl = CCCCCCCCCCCCCCCCCC(=O)*; Palmitoyl = CCCCCCCCCCCCCCCC(=O)*; Myristoyl = CCCCCCCCCCCCCC(=O)*; Lauroyl = CCCCCCCCCCCC(=O)*

Experiments:
[1] = RP-HPLC retention time as measure of hydrophobicity; format: physicochemical; conditions: chromatographic, Vydac C18 300 Å 4.6 × 250 mm, 1.0 mL/min, gradient 30-100% acetonitrile/0.1% TFA, 215 nm, column 25 ± 5 °C; maximum height of peak
Protocol: Peptides were synthesized using the Fmoc SPPS methods. Briefly, the peptide LVTX-9 (AC-[…]-amide) was prepared on Rink Amide AM resin at a 0.2 mmol scale. A 4-fold excess of the Fmoc-protected amino acids was coupled with the Rink Amide AM resin using HCTU and HOBT as the activating agents in 5% NMM/DMF. After the synthesis of LVTX-9, the N-terminal Fmoc group was removed using 20% piperidine. As in the previous steps, a series of fatty acids (C12-C20) was activated in HCTU and HOBT using 5% NMM/DMF, and coupled to peptidyl resin for 2 h. Peptides were cleaved using trifluoroacetic acid (TFA)/thioanisole (TIS)/anisole (95:3:2 (v/v)) for 2.5 h, and the collected lysate was precipitated in cold diethyl ether three times. The precipitate was air-dried naturally. Next, the obtained crude products were purified using RP-HPLC (C18, 4.6 mm × 250 mm) on the basis of a 0.1% TFA/acetonitrile gradient from 30% to 100% in 46 min. Then, we collected the eluted peptides and determined the molecular mass using MALDI-TOF MS (AB, SCIEX, Waltham, MA, USA).
Figure 2 Purification and identification of five lipopeptides using RP-HPLC and MALDL-TOF MS: The purification of (A) LVTX-9-C12, (B) LVTX-9-C14, (C) LVTX-9-C16, (D) LVTX-9-C18, and (E) LVTX-9-C20 was performed using RP-HPLC (column, Vydac, C18, 300 Å, 4.6 × 250 mm). The lipopeptides were separated at a flow rate of 1.0 mL/min under a gradient of 30–100% acetonitrile/0.1% TFA. The elution of lipopeptides was monitored at 215 nm. Identification of (F) LVTX-9-C12, (G) LVTX-9-C14, (H) LVTX-9-C16, (I) LVTX-9-C18, and (J) LVTX-9-C20 by MALDI-TOF MS, respectively. The red star (*) represents the target peak. […]
Table S1. Purification gradient of peptides.
Time (min) Flow Rate (mL/min) A% B%
Wavelength: 215 nm/280 nm, column temperature: 25 ± 5 ℃, A: ddH2O (0.1% TFA), B: acetonitrile
(1 picture or pasted object on this page, not shown here)

[2] = Circular dichroism secondary structure; format: physicochemical; conditions: 100 µM, 25 °C, 180-280 nm
Protocol: (§1) Dynamic light scattering (DLS) of Zetasizer Nano ZSP (Malvern Instruments, Malvern, UK) apparatus was used to determine the hydrodynamic size and zeta potential of LVTX-9 and LVTX-9-C18. The peptides concentrations were diluted to 100 µM with ultrapure water with a final volume of 1 mL. The procedure ran at 25 °C, with each experiment repeated three times. The secondary structures of LVTX-9 and LVTX-9-C18 were determined to be in line with the previous protocol. The peptide concentrations were then diluted to 100 µM with ultrapure water and 100 mM of SDS was added in a final volume of 250 μL. The procedure was carried out at 25 °C. CD spectra were recorded between 180 nm and 280 nm on a Jasco J-815 CD spectrometer.

B16-F10 cells [3] = experiment: Colony formation assay; format: cell-based, mouse; conditions: 1 μM, 7 days, crystal violet, mean ± SD, n = 3, control group 51 ± 12.0, p = 0.0198 vs control
Protocol: To detect the proliferation of B16-F10 cells treated with LVTX-9 and LVTX-9-C18 at low concentrations, digested cells were counted using a Cellometer K2 and seeded into a 12-well plate with approximately 100 cells per well. After 36 h, cells were treated with LVTX-9 (10 μM) and LVTX-9-C18 (1 μM), then incubated for 7 days at 37 °C in a humidified 5% CO2 atmosphere. Visible colonies were stained with 0.5% crystal violet and photographically recorded. The colony formation rates were calculated, and curves were manufactured by GraphPad prism 5.0.

B16-F10 cells [4] = experiment: Trypan blue staining; format: cell-based, mouse; conditions: 5 μM, 24 h, 0.04% trypan blue 4 min
Protocol: B16-F10 cells were seeded into a 48-well plate (2 × 10^3 cells/well) for 24 h and treated with LVTX-9 (50 μM) and LVTX-9-C18 (5 μM) for 24 h. The cells were washed with PBS gently and stained with 0.04% Trypan blue for 4 min. Dead cells were stained blue.

B16-F10 cells [5] = experiment: Scanning electron microscopy of cell membrane; format: cell-based, mouse; conditions: 5 μM, 24 h
Protocol: The morphologic changes of the cell membrane of B16-F10 cells treated with peptides were observed by SEM [14]. The cells were seeded on coverslips and placed into a six-well plate, then treated with LVTX-9 (50 μM) and LVTX-9-C18 (5 μM) for 24 h. After incubation, the B16-F10 cells were washed with sterile PBS gently three times and fixed with 2 mL of 2.5% glutaraldehyde solution in each well for 4 h at room temperature. Then, the fixed cells were dehydrated with a series of ethanol concentrations. We dried the samples with a Critical Point Dryer and coated them with gold plating before observation. A scanning electron microscope (Hitachi Su8010, Tokyo, Japan) was used to examine the prepared samples.

B16-F10 cells [6] = experiment: CCK-8 cell viability assay, B16-F10 cells; format: cell-based, mouse; conditions: 1 μM
Protocol: Mouse skin melanoma cells (B16-F10) were cultured in RPMI-1640 (Gibco), and mouse fibroblast cells (L-929), human lung carcinoma cells (A549), mouse breast cells (4T1), human hepatocarcinoma cells (HepG2), and human cervical carcinoma cells (Hela) were cultured in Dulbecco’s Modified Eagle Medium (DMEM, Gibco). All culture medium contained 10% fetal bovine serum (serum, Gibco), 100 U/mL of penicillin, and […] of streptomycin at 37 °C with 5% CO2.
Cell viability was quantified using a CCK-8 assay. At first, cells were seeded into a 96-well plate at approximately 2 × 10^3 cells/well. The following day, we created a 2-fold dilution series of each peptide using fresh medium (with or without 10% serum) for the treated cells, and cell viability was detected at 450 nm via a CCK-8 assay using an Absorbance Microplate Reader (BioTek Instruments, Winooski, VT, USA) following 24 h of drug incubation. The activity curves and IC50 values of the peptides were visualized using GraphPad prism 5.0.

[7] = Dynamic light scattering (hydrodynamic size, PDI, zeta potential); format: physicochemical; conditions: 100 µM in ultrapure water, 25 °C, repeated three times
Protocol: as §1

B16-F10 cells [8] = experiment: LDH leakage assay; format: cell-based, mouse; conditions: 12.5 μM, 24 h, absorbance 490 nm, n = 3
Protocol: At first, the B16-F10 cells were cultured in 96-well plates for 24 h at approximately 2 × 10^3 cells/well. Subsequently, the cells were treated for 24 h with LVTX-9 or LVTX-9-C18 with a series of concentration gradients. LDH leakage detection was detected using an LDH Cytotoxicity Assay Kit according to the manufacturer’s instructions (Beyotime, Shanghai, China. C0017). The absorption was measured using an Absorbance Microplate Reader (BioTek Instruments) at 490 nm. The LDH release (%) of peptides was calculated by GraphPad prism 5.0.

B16-F10 tumor spheroids = experiment: Toxicity in 3D tumor spheroids; format: cell-based, mouse; conditions: 20 μM, 3 days
Protocol: To further study the toxicity of LVTX-9 and LVTX-9-C18 in vitro, B16-F10 tumor spheroids, as 3D tumor models, were cultured according to protocols in the literature. Briefly, B16-F10 cells were seeded into an ultra-low attachment, 96-well, round-bottom plate (Corning) and cultured at 37 °C for 3–4 days. Then, the B16-F10 tumor spheroids were treated with 50 or 25 μM of LVTX-9 and 20 or 10 μM of LVTX-9-C18 in the RPMI-1640 supplied with 10% serum for 3 days. Subsequently, images were taken on days 0 and 3, and the cell viability was measured using a CellTiter-Glo 3D Cell Viability Assay (G9683).

Compound: CCCCCCCCCCCCCCCCCCCC(=O)N[C@@H](C)C(=O)N[C@@H](CO)C(=O)N[C@H](C(=O)NCC(=O)N[C@@H](C)C(=O)N[C@@H](CC(C)C)C(=O)N[C@H](C(=O)N[C@@H](CCC(N)=O)C(=O)N[C@@H](CCCCN)C(=O)N[C@@H](C)C(=O)N[C@H](C(=O)N[C@@H](C)C(=O)N[C@@H](CC(C)C)C(=O)N[C@H](C(=O)N[C@@H](CCCCN)C(=O)N[C@@H](C)C(=O)N[C@@H](CCCCN)C(=O)N[C@@H](C)C(=O)N[C@@H](C)C(N)=O)[C@@H](C)CC)[C@@H](C)CC)[C@@H](C)CC)[C@@H](C)CC [LVTX-9-C20] (Arachidoyl-ASIGALIQKAIALIKAKAA-NH2)
- TR (retention time, RP-HPLC; indicates the hydrophobicity of the peptides) [1]: 43.06 min

Compound: CCCCCCCCCCCCCCCC(=O)N[C@@H](C)C(=O)N[C@@H](CO)C(=O)N[C@H](C(=O)NCC(=O)N[C@@H](C)C(=O)N[C@@H](CC(C)C)C(=O)N[C@H](C(=O)N[C@@H](CCC(N)=O)C(=O)N[C@@H](CCCCN)C(=O)N[C@@H](C)C(=O)N[C@H](C(=O)N[C@@H](C)C(=O)N[C@@H](CC(C)C)C(=O)N[C@H](C(=O)N[C@@H](CCCCN)C(=O)N[C@@H](C)C(=O)N[C@@H](CCCCN)C(=O)N[C@@H](C)C(=O)N[C@@H](C)C(N)=O)[C@@H](C)CC)[C@@H](C)CC)[C@@H](C)CC)[C@@H](C)CC [LVTX-9-C16] (Palmitoyl-ASIGALIQKAIALIKAKAA-NH2)
- TR (retention time, RP-HPLC; indicates the hydrophobicity of the peptides) [1]: 40.21 min

Compound: CCCCCCCCCCCCCC(=O)N[C@@H](C)C(=O)N[C@@H](CO)C(=O)N[C@H](C(=O)NCC(=O)N[C@@H](C)C(=O)N[C@@H](CC(C)C)C(=O)N[C@H](C(=O)N[C@@H](CCC(N)=O)C(=O)N[C@@H](CCCCN)C(=O)N[C@@H](C)C(=O)N[C@H](C(=O)N[C@@H](C)C(=O)N[C@@H](CC(C)C)C(=O)N[C@H](C(=O)N[C@@H](CCCCN)C(=O)N[C@@H](C)C(=O)N[C@@H](CCCCN)C(=O)N[C@@H](C)C(=O)N[C@@H](C)C(N)=O)[C@@H](C)CC)[C@@H](C)CC)[C@@H](C)CC)[C@@H](C)CC [LVTX-9-C14] (Myristoyl-ASIGALIQKAIALIKAKAA-NH2)
- TR (retention time, RP-HPLC; indicates the hydrophobicity of the peptides) [1]: 36.15 min

Compound: CCCCCCCCCCCCCCCCCC(=O)N[C@@H](C)C(=O)N[C@@H](CO)C(=O)N[C@H](C(=O)NCC(=O)N[C@@H](C)C(=O)N[C@@H](CC(C)C)C(=O)N[C@H](C(=O)N[C@@H](CCC(N)=O)C(=O)N[C@@H](CCCCN)C(=O)N[C@@H](C)C(=O)N[C@H](C(=O)N[C@@H](C)C(=O)N[C@@H](CC(C)C)C(=O)N[C@H](C(=O)N[C@@H](CCCCN)C(=O)N[C@@H](C)C(=O)N[C@@H](CCCCN)C(=O)N[C@@H](C)C(=O)N[C@@H](C)C(N)=O)[C@@H](C)CC)[C@@H](C)CC)[C@@H](C)CC)[C@@H](C)CC [LVTX-9-C18] (Stearoyl-ASIGALIQKAIALIKAKAA-NH2)
- secondary structure (CD) in 100 mM of SDS ([2]; 100 mM SDS): α-helical conformation
- secondary structure (CD) in ultrapure water ([2]; ultrapure water): α-helical conformation
- colony number at 1 μM (B16-F10 cells [3]): 26 ± 2.9
- trypan blue staining at 5 μM (B16-F10 cells [4]): stained blue
- TR (retention time, RP-HPLC; indicates the hydrophobicity of the peptides) [1]: 41.89 min
- cell membrane morphology by SEM at 5 μM (B16-F10 cells [5]): totally disorganized or even absent
- cytotoxic effect on B16-F10 cells at 1 μM (B16-F10 cells [6]): no significant cytotoxic effect
- PDI (hydrodynamic size, DLS) [7]: 0.64 ± 0.1369
- zeta potential ([7]; p = 0.0084): significantly higher than that of LVTX-9
- LDH release at 12.5 μM (B16-F10 cells [8]): ~ 40%
- cell viability of B16-F10 tumor spheroids at 20 μM (B16-F10 tumor spheroids; CellTiter-Glo 3D Cell Viability Assay, n = 4, p < 0.0001): notably reduced the cell viability
- growth (volume) of B16-F10 tumor spheroids at 20 μM (B16-F10 tumor spheroids; RPMI-1640 with 10% serum, p = 0.0072): significantly suppressed

Compound: CCCCCCCCCCCC(=O)N[C@@H](C)C(=O)N[C@@H](CO)C(=O)N[C@H](C(=O)NCC(=O)N[C@@H](C)C(=O)N[C@@H](CC(C)C)C(=O)N[C@H](C(=O)N[C@@H](CCC(N)=O)C(=O)N[C@@H](CCCCN)C(=O)N[C@@H](C)C(=O)N[C@H](C(=O)N[C@@H](C)C(=O)N[C@@H](CC(C)C)C(=O)N[C@H](C(=O)N[C@@H](CCCCN)C(=O)N[C@@H](C)C(=O)N[C@@H](CCCCN)C(=O)N[C@@H](C)C(=O)N[C@@H](C)C(N)=O)[C@@H](C)CC)[C@@H](C)CC)[C@@H](C)CC)[C@@H](C)CC [LVTX-9-C12] (Lauroyl-ASIGALIQKAIALIKAKAA-NH2)
- TR (retention time, RP-HPLC; indicates the hydrophobicity of the peptides) [1]: 36.52 min
